Where “and” joins values, the source holds several entries; their conditions need not be identical. Equal entries are not always repeated.
Legend:
[1] = xn = mol fraction of the nth substance listed

CC(Cl)(Cl)Cl
viscosity
Conditions | 101 kPa | 101.3 kPa | 101.32 kPa | 101.33 kPa
303.15 K | 0.7243 mPa·s and 0.7245 mPa·s | 0.7275 mPa·s | 0.642 mPa·s and 0.7243 mPa·s | 0.7243 mPa·s
313.15 K | – | – | 0.583 mPa·s | –

CCCCCBr
101 kPa
Conditions | viscosity [mPa·s]
293.15 K | 0.798
303.15 K | 0.709
308.15 K | 0.6509
313.15 K | 0.637
323.15 K | 0.574

CCn1cc[n+](CCOC)c1.N#C[S-]
100 kPa
Conditions | viscosity [mPa·s]
293.15 K | 70.77
298.15 K | 55.77
303.15 K | 44.34
308.15 K | 36
313.15 K | 29.73
318.15 K | 24.89

CC(C)C1CCCCC1
100 kPa
Conditions | viscosity
293.15 K | 1.098 mPa·s
303.15 K | 0.949 mPa·s and 0.95 mPa·s
308.15 K | 0.885 mPa·s and 0.889 mPa·s
313.15 K | 0.83 mPa·s and 0.833 mPa·s
318.15 K | 0.781 mPa·s and 0.783 mPa·s
323.15 K | 0.736 mPa·s

CCCC[N+](CCCC)(CCCC)CCCC.[OH-]
viscosity [mPa·s]
Conditions | 298.15 K | 303.15 K | 308.15 K | 313.15 K
100 kPa | 6.69 | 6.49 | 6.29 | 6.13
101 kPa | 6.69 | 6.49 | 6.29 | 6.13

C=CC[n+]1ccn(C)c1.[Cl-]
Conditions | viscosity [mPa·s]
298.15 K, 101 kPa | 254.5

O=CC(Br)(Br)Br
101.33 kPa
Conditions | viscosity [mPa·s]
293.15 K | 6.81
313.15 K | 3.72

COC(=O)c1ccccc1C(=O)OC
101 kPa
Conditions | viscosity [mPa·s]
293.15 K | 17.63
298.15 K | 13.8
303.15 K | 11.07
308.15 K | 9.064
313.15 K | 7.558
318.15 K | 6.4
323.15 K | 5.493

CC/C(C)=N/O
101.3 kPa
Conditions | viscosity
293.15 K | 4.767 mPa·s
298.15 K | 4.016 mPa·s and 4.02 mPa·s
303.15 K | 3.437 mPa·s

O=CO + CC(C)=O
viscosity [mPa·s], [1], 101 kPa
Conditions | x1 = 0.1014 | x1 = 0.2068 | x1 = 0.299 | x1 = 0.4009 | x1 = 0.4945 | x1 = 0.6083 | x1 = 0.6998 | x1 = 0.8014 | x1 = 0.8947
298.15 K | 0.3575 | 0.4002 | 0.4482 | 0.5192 | 0.5972 | 0.7312 | 0.8622 | 1.053 | 1.287
308.15 K | 0.3251 | 0.3639 | 0.4063 | 0.4659 | 0.5315 | 0.642 | 0.7455 | 0.906 | 1.079
318.15 K | 0.2954 | 0.3287 | 0.3657 | 0.4163 | 0.4726 | 0.5609 | 0.6457 | 0.7719 | 0.9139

CC(Cl)(Cl)Cl + O=C1CCCCC1
[1], 298.15 K, 101.33 kPa
Conditions | viscosity [mPa·s]
x1 = 0.053 | 1.896
x1 = 0.099 | 1.812
x1 = 0.151 | 1.725
x1 = 0.252 | 1.568
x1 = 0.352 | 1.43
x1 = 0.452 | 1.305
x1 = 0.551 | 1.192
x1 = 0.6 | 1.141
x1 = 0.651 | 1.089
x1 = 0.7 | 1.041
x1 = 0.8 | 0.9504
x1 = 0.861 | 0.8988

O=CO
viscosity
Conditions | 293.15 K | 298.15 K | 303.15 K | 308.15 K | 313.15 K | 318.15 K | 323.15 K
101 kPa | – | – | 1.43 mPa·s and 1.434 mPa·s (2×) | 1.304 mPa·s | – | 1.089 mPa·s | 0.9767 mPa·s
101.33 kPa | 1.959 mPa·s | 1.51 mPa·s | 1.36 mPa·s | 1.25 mPa·s | 1.291 mPa·s and 1.15 mPa·s | – | –
